{"source": "ChEMBL document CHEMBL1143277", "about": "“Submicromolar phosphinic inhibitors of Escherichia coli aspartate transcarbamoylase” (Bioorg Med Chem Lett, 2009)", "key": {"[1]": {"test": "Inhibition of Escherichia coli pEK17/EK1104 ATCase catalytic subunit assessed as formation of N-carbamoyl-L-aspartate by colorimetric assay relative to carbamyl phosphate"}, "[2]": {"system": "Escherichia coli", "test": "Competitive inhibition of Escherichia coli pEK17/EK1104 ATCase catalytic subunit assessed as formation of N-carbamoyl-L-aspartate by colorimetric assay"}}, "note": "Activity calls are given as the source filed them. No cut-off for these calls is given here."}
{"smiles": "O=C(O)C[C@H](NC(=O)CP(=O)(O)CO)C(=O)O", "values": [{"measurement": "Ki", "setting": "[1]", "value": 193, "unit": "nM"}, {"measurement": "Activity", "setting": "[2]", "value": "Active"}]}
{"smiles": "O=C(O)C[C@H](NC(=O)C[PH](=O)O)C(=O)O", "values": [{"measurement": "Ki", "setting": "[1]", "value": 417, "unit": "nM"}, {"measurement": "Activity", "setting": "[2]", "value": "Active"}]}
{"smiles": "O=C(O)C[C@H](NC(=O)CP(=O)(O)O)C(=O)O", "note": "[PALA]", "values": [{"measurement": "Ki", "setting": "[1]", "value": 16, "unit": "nM"}, {"measurement": "Activity", "setting": "[2]", "value": "Active"}]}
